In one test the test system is Cftr^F508del mice. The test can be described thus: Cftr^F508del mice, CFTR localisation and lung inflammation. Type of test: in vivo. The conditions noted are these: for signs of lung inflammation: wt littermates.
The target in test [1] is T1, ΔF508-CFTR (Homo sapiens, UniProt P13569, DEL508-508). In words: SPQ halide (iodide) efflux assay in freshly isolated brushed nasal epithelial cells. It counts as cell-based. Further details: Nasal epithelial cells freshly isolated by nasal brushing from 5 CF patients carrying ΔF508/ΔF508 CFTR mutations; endogenous in cells; host or cells: primary brushed nasal epithelial cells from ΔF508/ΔF508 CF patients. The settings on record: 18 h exposure, wash and reculture 24 h with medium; brushed nasal cells from ΔF508/ΔF508 patients. From the text: We examined whether cystamine or EUK-134 (Luciani A, 2010) would induce and sustain functional ΔF508-CFTR expression in freshly isolated brushed nasal epithelial cells from ΔF508/ΔF508 patients (Table 1A). We used primary nasal epithelial cells freshly obtained from ΔF508-CFTR homozygous patients, to directly test the efficacy of these autophagy-rescuing strategies on CFTR function in human airways. We used a fluorescent-based SPQ halide efflux assays (Silvis M R, 2009) to test the response to a short pulse of forskolin (FSK) added together with either of two different CFTR potentiators, genistein or VX-532, (Van Goor F, 2010) and analyzed at least 50 brushed nasal cells for group of treatment in each patient. Freshly isolated brushed nasal epithelial cells were incubated for 18 h with either cystamine or EUK-134 or with the well known CFTR correctors Corr-4a and VRT-325.
Nasal epithelial cells freshly isolated by nasal brushing from 5 CF patients carrying ΔF508/ΔF508 CFTR mutations (see Table 1A) and 5 non-CF age- and sex-matched controls (3 F, mean age 12.5 yrs) were immersed in washing solution (PBS, DTT 2 mM, EDTA 10 mM) at 37° C. for 1 h on thermal shaker, centrifuged at 2,300×g for 20 min and washed in PBS. The isolated cells were maintained in 1 ml MEM Earl's salt L-Glutamine medium supplemented with 10% FBS and the appropriate amount of penicillin/streptomycin.^31 Brushed nasal cells were cultured for 18 h with medium, Vrx-325, Corr-4a (10 μM up to 50 μM) (kindly provided by Cystic Fibrosis Foundation, USA), cystamine (250 μM, Sigma-Aldrich), EUK-134 (50 μg ml^−1, Vinci Biochem), followed by 24 h of incubation with medium alone.
Iodide efflux. […] Changes in CFTR-mediated SPQ fluorescence were monitored at the 445 nm wavelength in response to excitation at 340 nm during perfusion at 37° C. in nitrate buffer (NaI replaced with 130 mM NaNO3) for 10 min with 20 μM forskolin plus 50 μM genistein or 20 μM forskolin plus 20 μM VRX-532 (kindly provided by Cystic Fibrosis Foundation, USA). The peak iodide efflux rate (usually 12 min after forskolin plus genistein or forskolin plus Vrx-532) of treated or untreated cells was calculated in accordance with the Stern-Volmer relationship as follows: (Fo/F)−1=KCQ
where F is the observed fluorescence, Fo is the fluorescence in the absence of a quenching anion, CQ is the concentration of the quenching anion, and K is the Stern-Volmer quench constant. The rates were calculated using SigmaPlot Version 7.1 for each mean fluorescence trace generated from the 50 cells examined per population per coverslip.

Test [2] has as its target T1, ΔF508-CFTR. In words: CFTR function in airway epithelial cell lines after pre-treatment, washout and pulse with potentiators. Type of test: cell-based. Further details: airway epithelial cell lines carrying ΔF508/ΔF508 CFTR mutations; endogenous in cells. The settings on record: for enabling the activity of genistein, VX-532 and VX-770 on ΔF508-CFTR: 48 h after withdrawal of the pre-treatment; for enabling the action of CFTR potentiators genistein or VX-532 in stimulating CFTR channel function: pre-treatment 18 h, washout 48 h, single pulse with potentiator, ΔF508/ΔF508 airway epithelial cell lines; for stimulating CFTR function (as potentiator): after pre-treatment with the mentioned molecules followed by 48 h of washout.
Procedure: To provide the rationale for the use of either TG2 inhibitors or drugs that reduce ROS levels as pre-treatment before the administration of CFTR potentiators, another experimental setting was used, where airway epithelial cell lines carrying ΔF508/ΔF508 CFTR mutations were treated with cystamine or EUK-134 or where TG2 was depleted by a small interference RNA approach or where ROS were reduced by the overexpression of the human Manganese Superoxide-dismutase (Mn-SOD).
Another experimental approach was used to test the efficacy of other pharmacological agents able to damp down TG2 and/or reduce the levels of ROS. […] These pharmacological agents were tested following the experimental approach of pre-treatment (18 h), washout (48 h) and single pulse with potentiators, in presence or absence of PA-LPS stimulation after pulse with potentiators, following the procedure above described.
Moreover, the efficacy of other molecules endowed with either ROS inhibiting activity or potentiator activity was tested.

Test [3] concerns ΔF508-CFTR homozygous airways. The conditions noted are these: mice in vivo and human tissues in vitro; cited from earlier work.
Test [4] has as its system ΔF508-CFTR homozygous patients. The conditions noted are these: cited from earlier work.
For test [5], the system named is nasal polyp biopsies from ΔF508/ΔF508 patients. The test can be described thus: ex vivo cultures of nasal polyp mucosal biopsies (confocal microscopy, in situ TG2 activity). Type of test: cell-based, human. How it is done:
Nasal polyp biopsies from five ΔF508/ΔF508 patients (Table 1B) were treated with cystamine for 18 h, washed and then cultured for further 36 h in the absence of cystamine.
Next, ΔF508/ΔF508 nasal polyp biopsies were pulsed for 30 min with genistein followed by 4 h incubation with PA-LPS. […] To examine whether pre-treatment with cystamine was effective in enabling the action of genistein in human airways, nasal polyp biopsies were incubated with cystamine or medium for 18 h, then washed and kept in medium alone for 24 h and finally pulsed for 30 min with genistein followed by 4 h PA-LPS.
Human samples: ex vivo cultures of nasal polyp mucosal biopsies. Nasal polyp biopsies from 5 ΔF508 homozygous patients undergoing surgical treatment for non-allergic nasal polyposis (see Table 1B) were cultured as previously described,^7,19,32 for 18 h with medium, cystamine or EUK-134, followed by 36 h of incubation with medium alone, and then pulsed for 30 min with medium or genistein followed by 4 h of PA-LPS challenge.
Human tissue sections: five-micrometer frozen human lung tissue sections were fixed in acetone for 10 min. The sections were incubated for 2 h at room temperature with the indicated antibodies (Abs). […] The primary Abs were: CFTR 1:100 (CF3, Abcam), CFTR 1:100 (H-182, Santa Cruz Biotecnology) (used on mouse tissue), phospho-Tyr 1:200 (Santa Cruz Biotecnology), p62 1:300 (Sigma). These were followed by incubation with Alexa 488 or 546 secondary antibodies (Molecular Probe, Invitrogen). Data were analyzed under fluorescence examination by a LSM510 Zeiss confocal laser-scanning unit (Carl Zeiss, Germany).
In situ detection of TG2 exzyme activity. TG2 activity in tissue samples was detected by incubating unfixed sections with biotinylated monodansylcadaverine for 1 h at 37° C. The incorporation of labeled substrate was visualized by incubation with Alexa 546-conjugated streptavidin (1:100; Molecular Probes, Invitrogen) for 30 min.

The mark [6] stands for this setting: i.p. 7 days followed by 10 days of vehicle only.

T1 sequence (P13569 with tags, fused parts or gaps DEL508-508): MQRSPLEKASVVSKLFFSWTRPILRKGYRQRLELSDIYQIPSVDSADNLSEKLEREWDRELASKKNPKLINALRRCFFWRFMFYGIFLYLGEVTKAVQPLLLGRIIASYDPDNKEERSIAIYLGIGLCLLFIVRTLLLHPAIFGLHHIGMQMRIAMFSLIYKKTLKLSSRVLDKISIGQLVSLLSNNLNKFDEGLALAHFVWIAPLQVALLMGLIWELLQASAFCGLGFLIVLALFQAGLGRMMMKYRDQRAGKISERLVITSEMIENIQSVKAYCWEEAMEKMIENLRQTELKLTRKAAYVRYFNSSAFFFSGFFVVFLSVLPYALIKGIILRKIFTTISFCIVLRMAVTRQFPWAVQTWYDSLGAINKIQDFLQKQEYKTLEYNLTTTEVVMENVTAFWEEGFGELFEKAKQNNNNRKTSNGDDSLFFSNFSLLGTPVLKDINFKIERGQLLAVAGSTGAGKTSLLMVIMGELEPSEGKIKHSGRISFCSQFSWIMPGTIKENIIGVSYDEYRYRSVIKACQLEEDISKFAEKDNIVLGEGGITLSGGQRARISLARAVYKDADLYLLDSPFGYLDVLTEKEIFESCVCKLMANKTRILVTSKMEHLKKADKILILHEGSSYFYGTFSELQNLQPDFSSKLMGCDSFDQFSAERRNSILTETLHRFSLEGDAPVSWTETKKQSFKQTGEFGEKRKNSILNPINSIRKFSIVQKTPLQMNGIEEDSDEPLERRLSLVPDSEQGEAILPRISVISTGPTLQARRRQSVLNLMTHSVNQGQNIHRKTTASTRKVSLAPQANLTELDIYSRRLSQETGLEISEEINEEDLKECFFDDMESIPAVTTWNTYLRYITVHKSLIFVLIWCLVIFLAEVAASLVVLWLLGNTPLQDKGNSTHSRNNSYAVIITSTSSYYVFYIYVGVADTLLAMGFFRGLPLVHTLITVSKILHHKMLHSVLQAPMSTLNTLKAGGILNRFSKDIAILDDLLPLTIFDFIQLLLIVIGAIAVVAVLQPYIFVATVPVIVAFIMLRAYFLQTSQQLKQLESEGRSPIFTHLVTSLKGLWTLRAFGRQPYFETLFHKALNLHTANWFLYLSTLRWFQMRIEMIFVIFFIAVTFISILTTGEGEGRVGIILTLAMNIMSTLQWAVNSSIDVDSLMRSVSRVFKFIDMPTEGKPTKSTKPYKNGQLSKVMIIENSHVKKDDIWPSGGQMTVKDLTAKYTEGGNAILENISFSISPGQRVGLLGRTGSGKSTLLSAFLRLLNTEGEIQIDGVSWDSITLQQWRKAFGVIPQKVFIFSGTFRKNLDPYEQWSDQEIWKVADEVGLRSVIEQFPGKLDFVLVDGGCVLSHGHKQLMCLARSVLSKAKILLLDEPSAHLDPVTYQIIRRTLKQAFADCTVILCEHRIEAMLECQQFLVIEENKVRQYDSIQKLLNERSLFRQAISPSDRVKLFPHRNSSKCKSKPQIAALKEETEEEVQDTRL

For `Cn1cnc(N)c2ncnc1-2` [3-MA], the “effects of cystamine (ΔF508 re-location, reduced lung inflammation) with co-treatment during the phase of withdrawal” value in the test with Cftr^F508del mice (intraperitoneal treatment during the withdrawal phase) is “abrogated”.
With `COc1ccc(Cl)cc1Nc1nc(-c2sc(NC(=O)c3ccccc3)nc2C)cs1` [Corr-4a], at ΔF508-CFTR [1], the “ΔF508-CFTR response to a short pulse of forskolin plus genistein or VX-532 (SPQ halide efflux)” value (“ΔF508-CFTR response to a short pulse” for short) is on record as “only had scarce effects”.
With `COc1cccc(C=NCCN=Cc2cccc(OC)c2[O-])c1[O-].[Cl-].[Mn+3]` [EUK-134], on ΔF508-CFTR [2], the “enabling the activity of genistein, VX-532 and VX-770 on ΔF508-CFTR” value was “enables the activity of the CFTR potentiators genistein and VX-532 as well as of the well known CFTR potentiator VX-770”; the “enabling the action of CFTR potentiators genistein or VX-532 in stimulating CFTR channel function” value is “similarly effective in enabling the action of CFTR potentiators”. Also, the “ΔF508-CFTR response to a short pulse” value on ΔF508-CFTR [1] is on record as “rendered the cells capable of conserving ΔF508-CFTR response”. Further, the “inflammation in ΔF508-CFTR homozygous airways” value in test [3] is listed as “blunts inflammation”.
Consider `COc1ccc(S(=O)(=O)N2CCN(C(C)c3nc(OC4CCCCC4)c4ccccc4n3)CC2)cc1` (centres unmarked) [VRT-325], for which the “ΔF508-CFTR response to a short pulse” value at ΔF508-CFTR [1] is “only had scarce effects”.
As to `Cc1ccc(NC(=O)C2(c3ccc4c(c3)OC(F)(F)O4)CC2)nc1-c1cccc(C(=O)O)c1` [VX-809], in test [4], the “lung function or CF complications” value is “no improvement” and the sweat chloride entry is on record as “modest dose-dependent reductions”.
In the case of `CC(=O)N[C@@H](CS)C(=O)O` [acetylcysteine], the “inflammation in ΔF508-CFTR homozygous airways” value in test [3] is recorded as “blunts inflammation”.
On to `O=c1cc(-c2ccc(O)cc2)oc2cc(O)cc(O)c12` [apigenin], for which, on ΔF508-CFTR [2], the “stimulating CFTR function (as potentiator)” value (from here on “stimulating CFTR function”) was “as effective as genistein in stimulating CFTR function”.
Turning to `NCCSSCCN` [cystamine], on ΔF508-CFTR [2], the “enabling the activity of genistein, VX-532 and VX-770 on ΔF508-CFTR” value was “enables the activity of the CFTR potentiators genistein and VX-532 as well as of the well known CFTR potentiator VX-770”; the “enabling the action of CFTR potentiators genistein or VX-532 in stimulating CFTR channel function” value is given as “similarly effective in enabling the action of CFTR potentiators”. Further, the lung inflammation entry in the test on Cftr^F508del mice (daily inhalations of aerosolized 0.2 mg/mouse/day for one week) is reported as “reduced lung inflammation”. Moreover, in the test with Cftr^F508del mice (setting [6]), the “re-location of ΔF508 protein at the respiratory epithelial surface” value is given as “persisted for 10 days after cystamine withdrawal” and the reducing lung inflammation entry is reported as “persisted for 10 days after cystamine withdrawal”. Besides, the “signs of lung inflammation” value in the test on Cftr^F508del mice is recorded as “not effective”. The “ΔF508-CFTR response to a short pulse” value on ΔF508-CFTR [1] is listed as “rendered the cells capable of conserving ΔF508-CFTR response”. Besides, the “inflammation in ΔF508-CFTR homozygous airways” value in test [3] is reported as “blunts inflammation”. Also, in test [5] (cystamine 18 h, washed, 36 h washout), the “reduction of signs of mucosal inflammation (TG2 activation and protein tyrosine phosphorylation)” value was “persisted after 36 h of washout”. For the same compound, the “rescue of CFTR at the epithelial surface (confocal microscopy)” value in test [5] (cystamine 18 h, washed, 36 h without cystamine) is given as “persisted for 36 h after cystamine withdrawal”.
As for `Oc1cc(O)c2c(c1)O[C@H](c1cc(O)c(O)c(O)c1)[C@H](O)C2` [epigallocatechin], the “stimulating CFTR function” value on ΔF508-CFTR [2] was “as effective as genistein in stimulating CFTR function”.
Consider `O=c1c(-c2ccc(O)cc2)coc2cc(O)cc(O)c12` [genistein], for which the “signs of lung inflammation after genistein pulse and aerosolized PA-LPS” value in the test on Cftr^F508del mice (mice not pretreated with cystamine) was “had no effect on its own”; in the test with Cftr^F508del mice (mice pre-treated with aerosolized cystamine one week, one week without treatment), “significantly reduced the signs of lung inflammation”. For the same compound, in the test on Cftr^F508del mice, the “signs of lung inflammation” value is given as “not effective”. In addition, the epithelial protein phosphorylation result in test [5] (30 min pulse followed by 4 h PA-LPS, no pre-treatment) is recorded as “not effective in reducing epithelial protein phosphorylation”.
With `O=c1c(O)c(-c2ccc(O)c(O)c2)oc2cc(O)cc(O)c12` [quercetin], the “stimulating CFTR function” value on ΔF508-CFTR [2] is “as effective as genistein in stimulating CFTR function”.
With `COc1cc(C2Oc3cc([C@H]4Oc5cc(O)cc(O)c5C(=O)[C@@H]4O)ccc3OC2CO)ccc1O` (some centres unmarked) [silybin], on ΔF508-CFTR [2], the “stimulating CFTR function” value is “as effective as genistein in stimulating CFTR function”.
As for catechin, the “stimulating CFTR function” value on ΔF508-CFTR [2] is “as effective as genistein in stimulating CFTR function”.

(Values after patent US9730922B2, “Combined therapy for cystic fibrosis” (I.E.R.F.C. EUROPEAN INSTITUTE FOR CYSTIC FIBROSIS RESEARCH, priority 2012, dated 2017).)
